Molecular target: Pyruvate kinase PKM (Homo sapiens, UniProt P14618)
Experiment: Activation Assay Measuring In Vitro Activation of Recombinant Human PKM2
Experimental: Human PKM2 was diluted into Assay Buffer comprising 50 mM imidazole, 50 mM KCl, 7 mM MgCl2, 0.01% Tween20, 0.05% BSA (pH 7.2) to a final concentration of 5 pM. Enzyme-Assay Buffer mix was dispensed into a 384-well shallow-well white-walled plate (PerkinElmer) and Test Compounds added by acoustic dispense (Echo , Labcyte Inc.). […] Kinase-Glo Plus reagent was added to each well and the plates incubated for a further 15 minutes on an orbital shaker in the dark (300 rpm, 26° C.) before luminescence measurement on a plate reader (PHERAstar FSX, BMG Labtech).

Sequence of Pyruvate kinase PKM (P14618 whole entry): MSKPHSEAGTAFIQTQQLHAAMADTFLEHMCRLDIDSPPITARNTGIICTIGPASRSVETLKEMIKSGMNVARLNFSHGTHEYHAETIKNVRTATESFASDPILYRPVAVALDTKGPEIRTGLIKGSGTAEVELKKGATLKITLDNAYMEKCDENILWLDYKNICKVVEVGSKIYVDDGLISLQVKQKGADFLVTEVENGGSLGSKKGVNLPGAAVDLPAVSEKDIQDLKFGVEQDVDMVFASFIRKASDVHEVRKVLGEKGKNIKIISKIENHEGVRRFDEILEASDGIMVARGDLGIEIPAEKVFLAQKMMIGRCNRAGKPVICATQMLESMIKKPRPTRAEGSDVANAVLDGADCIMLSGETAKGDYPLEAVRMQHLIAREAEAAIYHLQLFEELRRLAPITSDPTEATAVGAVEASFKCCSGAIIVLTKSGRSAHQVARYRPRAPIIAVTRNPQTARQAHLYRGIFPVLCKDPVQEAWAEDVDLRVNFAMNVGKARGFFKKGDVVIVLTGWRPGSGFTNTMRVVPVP

EC50: 354 nM
Compound: Cn1c2c(c3cnn(Cc4cccc(C(C)(C)O)c4)c(=O)c31)CCN(S(C)(=O)=O)C2 [US20240409542, Example 33]

Reference: BindingDB's records for patent US20240409542 (Sitryx Therapeutics, 2024)
